{"source": "PubChem BioAssay (NCI)", "test_in_all_cases": "inhibition of tumour cell growth, NCI panel, 384-well format", "key": {"NCI-H226 lung": {"test_system": "NCI-H226 lung"}, "NCI-H23 lung": {"test_system": "NCI-H23 lung"}, "NCI-H322M lung": {"test_system": "NCI-H322M lung"}, "NCI-H460 NSCLC": {"test_system": "NCI-H460 NSCLC"}, "NCI-H522 lung": {"test_system": "NCI-H522 lung"}, "NCI/ADR-RES ovarian": {"test_system": "NCI/ADR-RES ovarian"}, "OVCAR-3 ovarian": {"test_system": "OVCAR-3 ovarian"}, "OVCAR-4 ovarian": {"test_system": "OVCAR-4 ovarian"}, "OVCAR-5 ovarian": {"test_system": "OVCAR-5 ovarian"}, "OVCAR-8 ovarian": {"test_system": "OVCAR-8 ovarian"}, "PC-3 prostate": {"test_system": "PC-3 prostate"}, "RPMI-8226 leukemia": {"test_system": "RPMI-8226 leukemia"}, "RXF 393 renal": {"test_system": "RXF 393 renal"}, "SF-268 CNS": {"test_system": "SF-268 CNS"}, "SF-295 CNS": {"test_system": "SF-295 CNS"}, "SF-539 CNS": {"test_system": "SF-539 CNS"}, "SK-MEL-28 melanoma": {"test_system": "SK-MEL-28 melanoma"}, "SK-MEL-5 melanoma": {"test_system": "SK-MEL-5 melanoma"}, "SK-OV-3 ovarian": {"test_system": "SK-OV-3 ovarian"}, "SN12C renal": {"test_system": "SN12C renal"}, "SNB-19 CNS": {"test_system": "SNB-19 CNS"}, "SNB-75 CNS": {"test_system": "SNB-75 CNS"}, "SW-620 colon": {"test_system": "SW-620 colon"}, "T-47D breast": {"test_system": "T-47D breast"}, "TK-10 renal": {"test_system": "TK-10 renal"}, "U251 glioblastoma": {"test_system": "U251 glioblastoma"}, "UACC-257 melanoma": {"test_system": "UACC-257 melanoma"}, "UACC-62 melanoma": {"test_system": "UACC-62 melanoma"}, "UO-31 renal": {"test_system": "UO-31 renal"}}, "note": "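GI50: concentration for 50% inhibition of growth. The concentration for full growth arrest is given as TGI.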", "data": [{"smiles": "COc1cc2ncnc(Oc3cccc(NC(=O)Nc4cc(C(C)(C)C(F)(F)F)on4)c3)c2cc1OC", "values": [{"measurement": "TGI", "setting": "NCI-H226 lung", "value": 7550, "unit": "nM"}, {"measurement": "GI50", "setting": "NCI-H23 lung", "value": 168, "unit": "nM"}, {"measurement": "TGI", "setting": "NCI-H23 lung", "value": 1470, "unit": "nM"}, {"measurement": "GI50", "setting": "NCI-H322M lung", "value": 865, "unit": "nM"}, {"measurement": "TGI", "setting": "NCI-H322M lung", "value": 5180, "unit": "nM"}, {"measurement": "GI50", "setting": "NCI-H460 NSCLC", "value": 1540, "unit": "nM"}, {"measurement": "TGI", "setting": "NCI-H460 NSCLC", "value": 4460, "unit": "nM"}, {"measurement": "GI50", "setting": "NCI-H522 lung", "value": 242, "unit": "nM"}, {"measurement": "TGI", "setting": "NCI-H522 lung", "value": 1610, "unit": "nM"}, {"measurement": "GI50", "setting": "NCI/ADR-RES ovarian", "value": 2030, "unit": "nM"}, {"measurement": "TGI", "setting": "NCI/ADR-RES ovarian", "value": 4780, "unit": "nM"}, {"measurement": "GI50", "setting": "OVCAR-3 ovarian", "value": 1750, "unit": "nM"}, {"measurement": "TGI", "setting": "OVCAR-3 ovarian", "value": 4600, "unit": "nM"}, {"measurement": "GI50", "setting": "OVCAR-4 ovarian", "value": 3140, "unit": "nM"}, {"measurement": "TGI", "setting": "OVCAR-4 ovarian", "value": 12400, "unit": "nM"}, {"measurement": "GI50", "setting": "OVCAR-5 ovarian", "value": 1080, "unit": "nM"}, {"measurement": "TGI", "setting": "OVCAR-5 ovarian", "value": 4570, "unit": "nM"}, {"measurement": "GI50", "setting": "OVCAR-8 ovarian", "value": 2300, "unit": "nM"}, {"measurement": "TGI", "setting": "OVCAR-8 ovarian", "value": 9640, "unit": "nM"}, {"measurement": "GI50", "setting": "PC-3 prostate", "value": 2510, "unit": "nM"}, {"measurement": "TGI", "setting": "PC-3 prostate", "value": 5730, "unit": "nM"}, {"measurement": "GI50", "setting": "RPMI-8226 leukemia", "value": 1760, "unit": "nM"}, {"measurement": "TGI", "setting": "RPMI-8226 leukemia", "value": 3140, "unit": "nM"}, {"measurement": "GI50", "setting": "RXF 393 renal", "value": 1540, "unit": "nM"}, {"measurement": "TGI", "setting": "RXF 393 renal", "value": 3440, "unit": "nM"}, {"measurement": "GI50", "setting": "SF-268 CNS", "value": 216, "unit": "nM"}, {"measurement": "TGI", "setting": "SF-268 CNS", "value": 1100, "unit": "nM"}, {"measurement": "GI50", "setting": "SF-295 CNS", "value": 2060, "unit": "nM"}, {"measurement": "TGI", "setting": "SF-295 CNS", "value": 4520, "unit": "nM"}, {"measurement": "GI50", "setting": "SF-539 CNS", "value": 1350, "unit": "nM"}, {"measurement": "TGI", "setting": "SF-539 CNS", "value": 2780, "unit": "nM"}, {"measurement": "GI50", "setting": "SK-MEL-28 melanoma", "value": 35.1, "unit": "nM"}, {"measurement": "TGI", "setting": "SK-MEL-28 melanoma", "value": 541, "unit": "nM"}, {"measurement": "GI50", "setting": "SK-MEL-5 melanoma", "value": 206, "unit": "nM"}, {"measurement": "TGI", "setting": "SK-MEL-5 melanoma", "value": 1720, "unit": "nM"}, {"measurement": "GI50", "setting": "SK-OV-3 ovarian", "value": 871, "unit": "nM"}, {"measurement": "TGI", "setting": "SK-OV-3 ovarian", "value": 3140, "unit": "nM"}, {"measurement": "GI50", "setting": "SN12C renal", "value": 850, "unit": "nM"}, {"measurement": "TGI", "setting": "SN12C renal", "value": 3280, "unit": "nM"}, {"measurement": "GI50", "setting": "SNB-19 CNS", "value": 4200, "unit": "nM"}, {"measurement": "TGI", "setting": "SNB-19 CNS", "value": 14000, "unit": "nM"}, {"measurement": "GI50", "setting": "SNB-75 CNS", "value": 1860, "unit": "nM"}, {"measurement": "TGI", "setting": "SNB-75 CNS", "value": 3950, "unit": "nM"}, {"measurement": "GI50", "setting": "SW-620 colon", "value": 1180, "unit": "nM"}, {"measurement": "TGI", "setting": "SW-620 colon", "value": 3670, "unit": "nM"}, {"measurement": "GI50", "setting": "T-47D breast", "value": 1110, "unit": "nM"}, {"measurement": "TGI", "setting": "T-47D breast", "value": 3440, "unit": "nM"}, {"measurement": "GI50", "setting": "TK-10 renal", "value": 1690, "unit": "nM"}, {"measurement": "TGI", "setting": "TK-10 renal", "value": 4030, "unit": "nM"}, {"measurement": "GI50", "setting": "U251 glioblastoma", "value": 1670, "unit": "nM"}, {"measurement": "TGI", "setting": "U251 glioblastoma", "value": 3170, "unit": "nM"}, {"measurement": "GI50", "setting": "UACC-257 melanoma", "value": 57.5, "unit": "nM"}, {"measurement": "TGI", "setting": "UACC-257 melanoma", "value": 667, "unit": "nM"}, {"measurement": "GI50", "setting": "UACC-62 melanoma", "value": 17.8, "unit": "nM"}, {"measurement": "TGI", "setting": "UACC-62 melanoma", "value": 267, "unit": "nM"}, {"measurement": "GI50", "setting": "UO-31 renal", "value": 976, "unit": "nM"}, {"measurement": "TGI", "setting": "UO-31 renal", "value": 3150, "unit": "nM"}]}]}
